ChEMBL document CHEMBL1201862, “PubChem BioAssay data set” (2004)
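Method: 48-hour compound exposure of cells in 96-well plates, five concentrations, linear interpolation of endpoints. GI50 is the concentration that inhibits growth by half.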 Active and inactive are the calls of the source. Rule as the data show it: active = GI50 up to about 1.1 µM and inactive = higher.

What was measured:
Test in all cases: inhibition of tumour cell growth, NCI panel, 48 h
OVCAR-5 = system: OVCAR-5
U-251 = system: U-251
OVCAR-4 = system: OVCAR-4
MDA-MB-231 = system: MDA-MB-231
UO-31 = system: UO-31
SF-539 = system: SF-539
A498 = system: A498
NCI-H460 = system: NCI-H460
IGROV-1 = system: IGROV-1
SW-620 = system: SW-620
HOP-92 = system: HOP-92
786-0 = system: 786-0
SF-295 = system: SF-295
MOLT-4 = system: MOLT-4
HOP-62 = system: HOP-62
HCT-116 = system: HCT-116
HL-60 = system: HL-60
BT-549 = system: BT-549
EKVX = system: EKVX
UACC-257 = system: UACC-257
LOX IMVI = system: LOX IMVI
SK-MEL-2 = system: SK-MEL-2
HCT-15 = system: HCT-15
K562 = system: K562
SR = system: SR
M14 = system: M14
KM12 = system: KM12
ACHN = system: ACHN
NCI-H522 = system: NCI-H522
TK-10 = system: TK-10
NCI-H23 = system: NCI-H23
MCF7 = system: MCF7
SNB-19 = system: SNB-19
SNB-75 = system: SNB-75
Malme-3M = system: Malme-3M
CAKI-1 = system: CAKI-1
SN12C = system: SN12C
OVCAR-3 = system: OVCAR-3
SF-268 = system: SF-268
HCC 2998 = system: HCC 2998
MDA-MB-435 = system: MDA-MB-435
Hs-578T = system: Hs-578T
OVCAR-8 = system: OVCAR-8
A549 = system: A549
NCI-H226 = system: NCI-H226
HT-29 = system: HT-29
COLO 205 = system: COLO 205
DU-145 = system: DU-145
CCRF-CEM = system: CCRF-CEM
RPMI-8226 = system: RPMI-8226
NCI/ADR-RES = system: NCI/ADR-RES
PC-3 = system: PC-3
RXF 393 = system: RXF 393
SK-MEL-5 = system: SK-MEL-5
SK-MEL-28 = system: SK-MEL-28
MDA-N = system: MDA-N

## N#Cc1c(N)nc2c(/N=N\c3ccccc3)c(N)nn2c1Nc1ccccc1
OVCAR-5
  GI50: 26.7 µM (inactive)
U-251
  GI50: 10.2 µM (inactive)
OVCAR-4
  GI50: 14.9 µM (inactive)
MDA-MB-231
  GI50: 16 µM (inactive)
UO-31
  GI50: > 10 µM (inactive)
SF-539
  GI50: 21.6 µM (inactive)
A498
  GI50: 21.7 µM (inactive)
NCI-H460
  GI50: 10.1 µM (inactive)
IGROV-1
  GI50: 10.9 µM (inactive)
SW-620
  GI50: 10.8 µM (inactive)
HOP-92
  GI50: 14.6 µM (inactive)
786-0
  GI50: 18.6 µM (inactive)
SF-295
  GI50: 16.8 µM (inactive)
MOLT-4
  GI50: 3.24 µM (inactive)
HOP-62
  GI50: 20.3 µM (inactive)
HCT-116
  GI50: 9.38 µM (inactive)
HL-60
  GI50: 2.52 µM (inactive)
BT-549
  GI50: 23.9 µM (inactive)
EKVX
  GI50: 5.37 µM (inactive)
UACC-257
  GI50: 18.7 µM (inactive)
LOX IMVI
  GI50: 3.4 µM (inactive)
SK-MEL-2
  GI50: 7.91 µM (inactive)
HCT-15
  GI50: 23.6 µM
K562
  GI50: 3.4 µM (inactive)
SR
  GI50: 2.39 µM (inactive)
M14
  GI50: 12.1 µM (inactive)
KM12
  GI50: 4.75 µM (inactive)
ACHN
  GI50: 20.4 µM (inactive)
NCI-H522
  GI50: 17.8 µM (inactive)
TK-10
  GI50: 22.3 µM (inactive)
NCI-H23
  GI50: 4.55 µM (inactive)
MCF7
  GI50: 1.51 µM (inactive)
SNB-19
  GI50: 18.5 µM (inactive)
SNB-75
  GI50: 34.3 µM (inactive)
Malme-3M
  GI50: 21.6 µM (inactive)
CAKI-1
  GI50: 8.93 µM (inactive)
SN12C
  GI50: 7.69 µM (inactive)
OVCAR-3
  GI50: 13.9 µM (inactive)
SF-268
  GI50: 26.7 µM (inactive)
HCC 2998
  GI50: 4.41 µM (inactive)
MDA-MB-435
  GI50: 16.4 µM (inactive)
Hs-578T
  GI50: 1.06 µM (active)
OVCAR-8
  GI50: 3.72 µM (inactive)
A549
  GI50: 21.1 µM (inactive)
NCI-H226
  GI50: 25.7 µM (inactive)
HT-29
  GI50: 12.4 µM (inactive)
COLO 205
  GI50: 9.93 µM (inactive)
DU-145
  GI50: 18.2 µM (inactive)
CCRF-CEM
  GI50: 4.37 µM (inactive)
RPMI-8226
  GI50: 3.56 µM (inactive)
NCI/ADR-RES
  GI50: 20.4 µM (inactive)
PC-3
  GI50: 5.69 µM (inactive)
RXF 393
  GI50: 13.1 µM (inactive)
SK-MEL-5
  GI50: 14.9 µM (inactive)
SK-MEL-28
  GI50: 5.51 µM (inactive)
MDA-N
  GI50: 15.6 µM (inactive)
